# Test results taken from patent publication EP0791056B1, “LIPID-CLEAVAGE ENZYME COMPLEX” (priority 1994, dated 1996).
# How the values were obtained:
# [1] = molecular target: T1, Phospholipase C aus Bacillus cereus (Bacillus cereus, UniProt P09598); test: Enzymatic cleavage of AZT-DMDOPE, detection of cleavage products by thin-layer chromatography; assay type: biochemical; details: 10 mg AZT-DMDOPE in 0,1 M Tris, 0,1 mg enzyme, 15 h + 6 h at 37 °C
# T1 construct: purchased Boehringer Mannheim GmbH
# T1 sequence (P09598 39-283 limits assumed): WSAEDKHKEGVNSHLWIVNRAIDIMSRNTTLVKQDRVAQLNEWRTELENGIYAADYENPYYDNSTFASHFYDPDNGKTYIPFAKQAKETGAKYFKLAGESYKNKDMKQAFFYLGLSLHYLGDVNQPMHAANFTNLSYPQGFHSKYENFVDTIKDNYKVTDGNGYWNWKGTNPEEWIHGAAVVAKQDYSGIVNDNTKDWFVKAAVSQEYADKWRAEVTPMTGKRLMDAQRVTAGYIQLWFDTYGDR
# Protocol: (§1) 10 mg (3'-Desoxy-3'-azidothymidin)-5'-phosphorsäure-(3-dodecyl-mercapto-2-decyl-oxy)-propylester (AZT-DMDOPE) werden in 0,5 ml 0,1 M Tris-Pufferlösung suspendiert und nach Zugabe des Enzyms (0,5 mg bei Phosphodiesterase und 0,1 mg bei Phospholipase/Nuclease) 15 Stunden bei 37 °C inkubiert. Anschließend wird die Lösung dünnschichtchromatographisch untersucht. Nach Zugabe von 5 Tropfen gesättigter NaHCO3-Lösung wurde weitere 6 Stunden bei 37 °C inkubiert und anschließend die Lösung dünnschichtchromatographisch untersucht.
# (§2) Durch Dünnschichtchromatographie mit verschiedenen Elutionsmitteln wurde die Lösung hinsichtlich der Bildung der möglichen Spaltprodukte (AZT, AZT-monophosphat, DMDOP und Lipidmonophosphat) untersucht.
# (§3) • a) Phospholipase C aus Bacillus cereus, 2000 U/0,5 ml, Boehringer Mannheim GmbH • b) Phospholipase D, Typ I, aus Kohl, 150 - 300 U/mg, Sigma • c) Phosphodiesterase aus Kalbsmilz, 2 U/mg, Boehringer Mannheim GmbH • d) Phosphodiesterase aus Schlangengift, Boehringer Mannheim GmbH • e) Nuclease aus Staphylococcus aureus, 15 000 U/mg, Boehringer Mannheim GmbH • f) LCE (Lipid-Cleavage-Enzyme)
# [2] = system: Phospholipase D, Typ I, aus Kohl; test: as above; assay type: biochemical; details: 10 mg AZT-DMDOPE in 0,1 M Tris, 0,1 mg enzyme, 15 h + 6 h at 37 °C; at the height of the lipid phosphate
# Protocol: as §1, §2, §3
# [3] = molecular target: T2, Nuclease aus Staphylococcus aureus (Staphylococcus aureus, UniProt P00644); test: as above; assay type: biochemical; details: 10 mg AZT-DMDOPE in 0,1 M Tris, 0,1 mg enzyme, 15 h + 6 h at 37 °C
# T2 construct: purchased Boehringer Mannheim GmbH
# Protocol: as §1, §2, §3
# [4] = system: Phosphodiesterase aus Kalbsmilz; test: as above; assay type: biochemical; details: 10 mg AZT-DMDOPE in 0,1 M Tris, 0,5 mg enzyme, 15 h + 6 h at 37 °C
# Protocol: as §1, §2, §3
# [5] = system: LCE (Lipid-Cleavage-Enzyme); test: as above; assay type: biochemical; details: 10 mg AZT-DMDOPE in 0,1 M Tris, 15 h + 6 h at 37 °C
# Protocol: as §1, §2, §3
# stimulierten humanen PBL = test: Intracellular concentrations of AZT and AZT nucleotides (radioimmunoassay) in stimulated human PBL; details: for maximale intrazelluläre Konzentrationen an freiem AZT: without alkaline phosphatase; for maximale Konzentrationen an AZT und phosphorylierten AZT-Nukleotiden: with alkaline phosphatase
# Text: Zur Bestimmung der intrazellulären Konzentrationen an AZT und/oder AZT-Nukleotiden nach Inkubation mit AZT-DMDOPE bzw. AZT wurden humane PBL aus "Buffy coat" isoliert.
# Hierfür wurde "Buffy-coat" von gesunden Spendern gemischt und durch Zentrifugation in einem isotonischen Medium mit einer Dichte von 1.077 g/ml fraktioniert. Da mononukleare Blutzellen (Monozyten und Lymphozyten) eine geringere Dichte als Erythrozyten und polymorphkernige Granulozyten haben, bilden sie einen Ring an der Grenze zwischen Trennmedium und Probe und können mit Hilfe einer Pipette abgenommen werden. Erythrozyten und polymorphkernige Granulozyten sedimentieren aufgrund ihrer höheren Dichte durch das Medium und lassen sich somit von PBL separieren. Zur Stimulation der Zellproliferation wurde Phytohämaglutinin A (Mukoprotein) (PHA-M), der mitogene Lektinextrakt aus der roten Feuerbohne (Phaseolus vulgaris), eingesetzt. Phytohämagglutinin ist eine Familie von 5 Isolektinen, die als Tetramere vorliegen. Die Untereinheiten bestehen aus einem lymphozytenreaktiven Typ-L und einem erythrozytenreaktiven Typ-E. Typ-L hat eine hohe Affinität zu Lymphozytenoberflächenrezeptoren und ist somit verantwortlich für die mitogenen Eigenschaften. Die Stimulation der Lymphozyten wurde in KPMI 1640 Komplettmedium III für 72 h bei 37 °C und 5 % CO2 durchgeführt. Nach Beendigung der Stimulation wurden zur Erhöhung der Zellzahl die Zellen für weitere 24 h in RPMI 1640 Komplettmedium IV kultiviert.
# Zur Bestimmung der intrazellulären Konzentrationen an AZT und AZT-Nukleotiden wurden die Zellen in RPMI 1640 Komplettmedium II mit einer Dichte von 1 x 10^6 Zellen/ml in Gewebekulturflaschen (50 ml/25 cm^2) überführt, und in Anwesenheit von 0.03 bzw. 0.3 µg AZT/ml (Charge 15) und 1 bzw. 10 µg AZT-DMDOPE/ml für 1 - 24 h inkubiert.
# Die Kulturen wurden anschließend für 1, 3, 6 und 24 h bei 37 °C und 5 % CO2 inkubiert. AZT und seine Nukleotide wurden anschließend mit 60 % Methanol extrahiert. Die extrahierten Nukleotide wurden mit alkalischer Phosphatase quantitativ zu AZT dephosphoryliert, da nur AZT, nicht jedoch die entsprechenden Nukleotide mit Hilfe eines Radioimmuno-Assays detektiert werden kann.
# Die Konzentrationen an intrazellulärem AZT, die mit Hilfe des Radioimmuno-Assays bestimmt wurden, setzten sich dementsprechend aus der des AZT und den der AZT-Nukleotide zusammen. Eine separate Quantifizierung der Konzentrationen an AZT-MP, AZT-DP und AZT-TP wurde nicht durchgeführt.
# Diese Experimente wurden an stimulierten humanen PBL durchgeführt.
# Hierfür wurden Zellsuspensionen mit einer Dichte von 10^6 Zellen/ml mit 1 bzw. 10 µg AZT-DMDOPE/ml für 6 bzw. 24 h bei 37 °C und 5 % CO2 inkubiert.
# Zur quantitativen Bestimmung von AZT wurde ein kommerzieller ^125J-AZT RIA Test-Kit verwendet. Puffer und Lösungen wurden gemäß den Angaben des Herstellers angesetzt und im Test-Kit eingesetzt. Die Reaktionsansätze wurden nach untenstehendem Schema (Tab. ) pipettiert, vorsichtig gemischt und für 2 h bei Raumtemperatur inkubiert. Anschließend wurden zur Präzipitation des Komplexes aus ^125J-AZT und des AZT-Antikörpers (aus Kaninchen) 500 µl des Ziege-Anti-Kaninchen-Antikörpers hinzugefügt. Die Ansätze wurden gemischt und erneut bei Raumtemperatur für 30 min inkubiert.
# [6] = 10 µg AZT-DMDOPE/ml, after 24 h
smiles,measurement,setting,value
"CCCCCCCCCCCCSCC(COP(=O)(O)OC[C@H]1O[C@@H](n2cc(C)c(=O)[nH]c2=O)C[C@@H]1N=[N+]=[N-])OCCCCCCCCCC (stereo partly drawn) [AZT-DMDOPE, (3'-Desoxy-3'-azidothymidin)-5'-phosphorsäure-(3-dodecyl-mercapto-2-decyloxy)-propylester]",Fluoreszenzauslöschung DC,[1],negativ
same,Fluoreszenzauslöschung DC,[2],schwach
same,Fluoreszenzauslöschung DC,[3],negativ
same,Fluoreszenzauslöschung DC,[4],negativ
same,Fluoreszenzauslöschung DC,[5],positiv
same,maximale intrazelluläre Konzentrationen an freiem AZT,"stimulierten humanen PBL; 1 µg AZT-DMDOPE/ml, after 6 h",0.03 ng/10^6 Zellen
same,maximale Konzentrationen an AZT und phosphorylierten AZT-Nukleotiden,"stimulierten humanen PBL; 1 µg AZT-DMDOPE/ml, after 24 h",3.85 ng/10^6 Zellen
same,maximale Konzentrationen an AZT und phosphorylierten AZT-Nukleotiden,stimulierten humanen PBL; [6],6.41 ng/10^6 Zellen
same,maximale intrazelluläre Konzentrationen an freiem AZT,stimulierten humanen PBL; [6],0.15 ng/10^6 Zellen
same,"intrazellulärer Spiegel an AZT und seiner Nukleotiden, Verlauf","stimulierten humanen PBL; 1 bzw. 10 µg AZT-DMDOPE/ml, whole incubation time 1 - 24 h",stetig steigender
same,intrazelluläre Spiegel im Vergleich zu AZT,"stimulierten humanen PBL; after 24 h incubation, equipotent concentrations",identisch
same,intrazelluläre Konzentrationen an AZT und AZT-Nukleotiden im Vergleich zur äquipotenten Konzentration an AZT,"stimulierten humanen PBL; incubation time 18 - 48 h, further experiments",größer
